PMC12775653, “Quantitative dynamic granzyme B PET imaging to characterize novel combination immunotherapy response in preclinical glioblastoma models” (Theranostics, 2026)
* marks the point of attachment. NOTA = O=C(O)CN1CCN(CC(=O)O)CCN(CC(=O)*)CC1

Target: T1, granzyme B (Mus musculus, UniProt P04187)
T1 construct: from tissue; host or cells: intracranial GSC005-luc tumour in C57BL/6 mice; granzyme B comes from the host's cytotoxic immune cells
T1 sequence (P04187 21-247): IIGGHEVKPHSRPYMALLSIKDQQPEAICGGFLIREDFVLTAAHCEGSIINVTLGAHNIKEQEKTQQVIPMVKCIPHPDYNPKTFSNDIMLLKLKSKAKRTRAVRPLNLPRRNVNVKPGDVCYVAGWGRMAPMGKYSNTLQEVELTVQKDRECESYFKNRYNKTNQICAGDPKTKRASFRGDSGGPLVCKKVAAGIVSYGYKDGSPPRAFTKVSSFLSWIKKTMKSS
Type: in vivo, mouse (C57BL/6, orthotopic GSC005-luc GBM)
Description: Dynamic [^64Cu]-NOTA-GZP PET was collected using a preclinical small animal PET/CT imaging system (GNEXT, Sofie Bioscience, Culver City, CA) seven days from the start of therapy. Scan consisted of an 80-min list-mode acquisition, with 100 ± 10 μCi (3.7 ± 0.37 MBq) of [^64Cu]-NOTA-GZP being administered via tail-vein catheter followed by a saline flush. Subsequently, a 5-min computed tomography (CT, voltage, 80 kVp; current, 150 μA) scan was collected for anatomical reference. A subset of mice (N = 5 treatment, 3 controls) was humanely euthanized, and brains were excised for a 1 h ex vivo PET/CT brain scan and, upon completion, placed in formalin and fixed overnight. Remaining mice were monitored longitudinally for survival.
Dynamic PET data was reconstructed using a 3D ordered-subset expectation maximization algorithm (24 subsets, 3 iterations) with a reconstructed voxel size of 0.5 × 0.5 × 0.5 mm^3 based on a 12 × 10 s, 6 × 30 s, 5 × 60 s, 10 × 300 s, 1 × 1200 s framing sequence (Figure 2A). PET sequences were rigidly registered to the reference anatomical CT scan. Voxel-wise conversion to standardized uptake value (SUV) was then performed based on the following equation:
GSC005-luc orthotopic mouse models were developed and treated with single dose M002 followed by a dose of anti-PD1 on days 1, 4 and 7 (N = 22), or saline at similar timepoints (N = 9). 80-min dynamic [^64Cu]-NOTA-GZP PET/CT scans were performed at day 4 and 7 following treatment, with tumor and contralateral brain time activity curves being fitted to a 2TCM as selected based on prior comparative assessment. Metrics for average SUV, k1, k2, k3 and k4 were quantified on the tumor region with additional normalization to contralateral healthy brain (TBR).
In addition, anatomical MRI scans were collected prior to the start of treatment (D-1), and at days 3, 6 and 13 following treatment for anatomical PET/CT reference and monitoring of tumor volumes. Longitudinal monitoring was performed via BLI every three days. […] Response was defined based on a threshold of less than 20% increase in BLI signal one month following initial immunotherapy administration as previously reported.

k3 (tracer binding rate), contralateral brain (2TCM, combination immunotherapy-treated mice, four days following therapy, contralateral brain): 0.04 ± 0.05 min⁻¹
k3 (tracer binding rate), tumor (2TCM, combination immunotherapy-treated mice, four days following therapy, tumor): 0.13 ± 0.8 min⁻¹
Substance: {NOTA}-AGGIEFD-aldehyde [[^64Cu]-NOTA-GZP, NOTA-Ala-Gly-Gly-Ile-Glu-Phe-Asp-CHO (NOTA-GZP) radiolabeled with ^64Cu; granzyme B specific PET imaging agent]
SUV TBR (mouse, in vivo): 2.50 ± 1.68
k1 TBR (mouse, in vivo): 1.18 ± 0.75
